Laboratory results as given in US8835510B2, “Methods and compositions for treating conditions mediated by oxidative stress or electrophilic environmental toxins” (priority 2010, dated 2014).
Several values for one entry are separate records, joined by “and”; a condition that tells them apart may be missing. Equal entries are not always repeated. Entries after “also recorded” stand apart in the source; their conditions may differ.

Key:
[1] = system: acrolein-exposed striatal synaptosomes; assay: Protection against acrolein-induced thiol loss in striatal synaptosomes (DTNB); format: cell-based, rat; conditions: for cytoprotection / thiol protection in acrolein-exposed synaptosomes: pH 7.4, test compound 500 μM
Description: Therefore, as an investigation of possible cytoprotection, a determination was made of the relative abilities of the above 1,3-dicarbonyl structural series to prevent thiol loss in acrolein-exposed rat striatal synaptosomes (isolated CNS nerve terminals). Synaptosomes were prepared according to the methods of LoPachin et al.^52 and were exposed (Krebs buffer, pH 7.4, 30° C.×15 mins) to graded concentrations of acrolein (1-1000 μM) alone or in combination with a 1,3-dicarbonyl derivative or control compound (500 μM). […] The respective IC50s and 95% confidence intervals were calculated by the […] (Prism 3.0, GraphPad Software). The selected 1,3-dicarbonyls are carbanion nucleophiles and, therefore, the analyses also included NAC as a representative thiolate-type nucleophile. Studies were conducted to assess the in vitro toxicity of the selected enol derivatives (FIG. 4).
Studies were carried out using isolated brain nerve terminals (striatal synaptosomes) exposed to acrolein as a model of electrophile-induced toxicity, as illustrated in FIG. 5A-5B. Acrolein is a soft electrophile that inhibits protein function by forming adducts with soft nucleophilic cysteine residues and thereby causes synaptosomal toxicity.

MN9D cells [2] = assay: Cell viability (trypan blue) in H2O2-exposed MN9D cultures; conditions: for concentration dependence of protection against H2O2: graded concentrations: 2-ACP 250-750 μM, AcAc 500-1500 μM (range-finding 50-1000 μM); for protection against H2O2-induced cell death: test compound 750 μM (phloretin 100 μM); for protection against H2O2-induced cytotoxicity: FIG. 7
Description: (§1) As a more complex biological model, a determination was made of the relative abilities of the 1,3-dicarbonyls to protect MN9D cells, a dopaminergic cell line, from acrolein- (FIG. 6) or hydrogen peroxide (H2O2)-induced cell death (FIG. 7). Briefly, two days after plating, cells were incubated with AcAc (750 μM) for one hr followed by exposure to graded concentrations of either acrolein (0.50-150 μM×24 hrs) or H2O2 (50-750 μM×24 hrs). Cell viability was determined by trypan blue (0.1%) exclusion. Living cells were counted in a hemocytometer and total cells per dish were calculated.
This system represents a more complete model of oxidative stress since the hydroxyl radical formed from intracellular H2O2 during the Fenton reaction, subsequently mediates the generation of toxic aldehyde by-products such as acrolein and 4-hydroxy-2-nonenal (HNE).

[3] = pKa and enolate ionization of enol compounds; format: physicochemical; conditions: for fraction in the anionic enolate state: pH 7.4 (neutral / cellular pH); for increase in enolate concentration: pH 9.0 relative to pH 7.4
[4] = Kinetic assay of acrolein-induced N-acetyl cysteine (NAC) sulfhydryl loss (DTNB method); conditions: for sulfhydryl (NAC) protection, pre-incubation: acrolein pre-incubated with test compound, NAC added one hour later; for rate of sulfhydryl loss (mean rate±SE): NAC + acrolein 150 μM + test compound 50 μM co-incubated, Krebs buffer pH 7.4, 30° C.; for rate of acrolein-induced sulfhydryl (NAC) loss (mean rate±95% confidence interval): pH 7.4; for ability to slow acrolein-induced NAC thiol loss: co-incubation, test compound 50 μM, pH 7.4 (FIG. 3A)
Description: As an index of cytoprotection, these studies focused on the abilities of 1,3-dicarbonyl compounds to prevent electrophile-induced loss of protein and non-protein sulfhydryl groups. This experimental focus is based on substantial evidence that soft electrophiles, like acrolein, produce toxicity by forming Michael-type adducts with soft nucleophilic thiolate (anionic sulfhydryl) groups on functionally critical proteins^9, 17, 22, 56, 57 (reviewed in^28, 58, 62, 77, 94). […] To test this hypothesis, a determination was made of the ability of AcAc and other structurally related enol analogs to prevent sulfhydryl (nucleophile) adduction by acrolein (electrophile)^56. […] Free sulfhydryl concentrations were determined over time (up to 15 mins) by the DTNB method of LoPachin et al.^52.
Therefore, as a kinetic index of competitive thiol protection by enolate sequestration, the relative in vitro abilities of 1,3-dicarbonyl compounds and phloretin to slow the rate of acrolein-induced sulfhydryl loss were measured.

[5] = system: acrolein-exposed striatal synaptosomes; assay: Protection against acrolein-induced inhibition of 3H-dopamine transport in striatal synaptosomes; format: cell-based, rat; conditions: for change in acrolein IC50 for inhibition of DA transport: test compound 500 μM, Krebs buffer pH 7.4, 30° C., 15 mins (FIG. 5A)
Male rats = assay: 2-ACP toxicity in rats (14 day i.p. dosing); format: in vivo, rat; conditions: i.p. 100, 200 or 300 mg/kg/d×14 days
Description: (§2) This study was carried out in accordance with the NIH Guide for Care and Use of Laboratory Animals and approved by the Montefiore Medical Center Animal Care and Use Committee. Adult male rats (Sprague-Dawley, Taconic Farms, Germantown, N.Y., USA) were used in this study. Rats were housed individually in polycarbonate boxes, and drinking water and Purina Rodent Laboratory Chow (Purina Mills, Inc., St. Louis, Mo., USA) were available ad libitum.
(§3) Male rats (200-250 gm) were injected (i.p.) with 2-ACP at three different daily dose-rates: 100, 200 or 300 mg/kg/d×14 days. Rats were observed 3 times per week for signs of developing toxicity; i.e., body weight loss, general appearance, water/food consumption, gait performance and home cage behavior. […] As a model of in vivo oxidative stress, rats (200-250 gm) were administered 30 μl of carbon tetrachloride (CCl4) in corn oil (ip) following six daily doses of 2-ACP (200 mg/kg/d) by gavage. […] These findings indicate that 2-ACP decreased the degree of hepatic cell death caused by CCl4.

[6] = Free radical scavenging (DPPH absorbance method of Ak and Gulcin)
Description: The relative abilities of selected 1,3-dicarbonyl compounds to scavenge free radicals were determined using the spectrophotometric method of Ak and Gulcin (2008)^4 that measures changes in the absorbance of the 2,2-diphenyl-1-picrylhydrazyl radical.

Aqueous solubility = format: physicochemical
CCl4-intoxicated rats = assay: Protection from carbon tetrachloride-induced hepatotoxicity in rats; format: in vivo, rat; conditions: 2-ACP 200 mg/kg/d by gavage, six daily doses, then CCl4 30 μl ip; plasma 24 hours after
Description: as §2, §3

[7] = Ferrous ion chelation (method of Dairam et al.); conditions: for EC50: read-out: concentration at which 50% Fe^2+ chelation occurs
MN9D cells [8] = assay: Cell viability (trypan blue) in acrolein-exposed MN9D cultures; conditions: for concentration dependence of protection against acrolein: graded concentrations: 2-ACP 100-750 μM, AcAc 250-1000 μM (range-finding 50-1000 μM); for protection against acrolein-induced cell death (words): pre-incubation 60 minutes, 750 μM each (phloretin 100 μM); for increase in acrolein LC50: test compound 750 μM pre-incubation
Description: as §1

whole animal = conditions: cited from earlier work
[9] = co-incubation with test compound 500 μM

Structure (SMILES)	protection against H2O2-induced cell death (MN9D cells [2])	pKa [3]	fraction in the anionic enolate state [3]	sulfhydryl (NAC) protection, pre-incubation [4]	protection against acrolein-induced cell death (words) (MN9D cells [8])	rate of sulfhydryl loss (mean rate±SE) [4] [nmol SH sec^−1]	change in acrolein IC50 for inhibition of DA transport [5]	further results
CC(=O)C1CCCC1=O (stereo not drawn) [2-ACP, 2-acetylcyclopentanone]	nearly complete protection	7.8	~50%	completely preserved	completely prevented cell death	–	–	increase in acrolein IC50 for synaptosomal thiol loss [1, 9]: 15 fold; concentration dependence of protection against H2O2 (MN9D cells [2]): significant increases in the LC50 of H2O2; sulfhydryl (NAC) protection, co-incubation ([4]; all chemicals added simultaneously): complete sulfhydryl protection; increase in acrolein IC50 for 3H-DA transport inhibition [5, 9]: 15 fold; overt signs of toxicity (body weight loss, appearance, water/food consumption, gait, home cage behavior) (Male rats): did not cause overt signs of toxicity; DPPH scavenging rate, fold slower than curcumin ([6]; relative to curcumin): 30-40 fold; water solubility (Aqueous solubility): water soluble; reduction of plasma alanine transferase (ALT) relative to toxicant only (CCl4-intoxicated rats): 40%; reduction of plasma aspartate transferase (AST) relative to toxicant only (CCl4-intoxicated rats): 52%; EC50 [7]: 211 µM; concentration dependence of protection against acrolein (MN9D cells [8]): significant increases in the LC50
CC(=O)CC(C)=O [AcAc, acetylacetone]	modestly effective	8.9	–	modestly effective	significantly increased the acrolein LC50	−24.9±5	largest increases in the acrolein IC50	LD50 (whole animal): 175 mg/kg; protection against H2O2-induced cytotoxicity (MN9D cells [2]): 3 fold; concentration dependence of protection against H2O2 (MN9D cells [2]): concentration-dependent protection; also recorded: significant increases in the LC50 of H2O2; increase in enolate concentration [3]: ~100 fold; rate of acrolein-induced sulfhydryl (NAC) loss (mean rate±95% confidence interval) [4]: -24.9 ± 3.6 nmol/s; rate of acrolein-induced sulfhydryl (NAC) loss ([4]; pH 9.0): -2.43 ± 2.2 nmol/s; thiol protection against acrolein at elevated pH ([4]; pH 9.0): substantially elevated; also recorded: completely protective; EC50 [7]: 909 µM; concentration dependence of protection against acrolein (MN9D cells [8]): concentration-dependent protection; also recorded: significant increases in the LC50; increase in acrolein LC50 (MN9D cells [8]): ~7 fold
O=C1CCC(=O)C1 [CPD, 1,3-cyclopentanedione]	ineffective	–	–	modestly effective	completely prevented cell death	–	–	–
CCOC(=O)CC(=O)OCC [DEM, diethyl malonate]	ineffective	12.9	< 0.1%	–	neither DEM nor HD were effective	–	Neither DEM nor HD significantly affected	cytoprotection / thiol protection in acrolein-exposed synaptosomes [1]: not cytoprotective; increase in enolate concentration [3]: ~100 fold
CC1(C)CC(=O)CC(=O)C1 [DMD, 5,5-Dimethyl-1,3-cyclohexanedione]	–	5.3	99%	significant thiol protection	did not provide protection	−2.4±0.3	largest increases in the acrolein IC50	cytoprotection / thiol protection in acrolein-exposed synaptosomes [1]: powerful cytoprotectant; protection against acrolein-induced cell death in serum-free medium (MN9D cells [8]): substantial increases in the acrolein LC50
O=C(O)CN(CCN(CC(=O)O)CC(=O)O)CC(=O)O [EDTA]	–	–	–	–	–	–	–	EC50 [7]: 31 µM
CC(=O)CCC(C)=O [HD, 2,5-hexanedione, reference compound]	ineffective	–	–	did not affect the rate of acrolein-induced thiol loss	neither DEM nor HD were effective; also recorded: slight increase in LC50	–	Neither DEM nor HD significantly affected	ability to slow acrolein-induced NAC thiol loss [4]: not effective
CC(=O)C(C)C(C)=O [MPD, 3-methyl-2,4-pentanedione]	–	10.8	–	–	–	–	–	ability to slow acrolein-induced NAC thiol loss [4]: minimally protective
CC1(C)OC(=O)CC(=O)O1 [Meld. Acid, 2,2-dimethyl-1,3-dioxane-4,6-dione]	–	4.8	–	significant thiol protection	did not provide protection	–	largest increases in the acrolein IC50	protection against acrolein-induced cell death in serum-free medium (MN9D cells [8]): substantial increases in the acrolein LC50
CC(=O)N[C@@H](CS)C(=O)O [NAC, N-acetyl cysteine, reference compound]	significantly less efficacious; also recorded: less protective	–	–	–	nearly complete protection; also recorded: completely prevented cell death	–	largest increases in the acrolein IC50	DPPH radical scavenging [6]: modest free radical scavenging; Fe^2+ chelating activity [7]: little, if any, Fe^2+ chelating activity
CC(=O)CC(=O)C(F)(F)F [TFPD, 1,1,1,-trifluoro-2,4-pentanedione]	modestly effective	–	> 99% and 99%	modestly effective	significantly increased the acrolein LC50	−52.1±5	more modest	cytoprotection / thiol protection in acrolein-exposed synaptosomes [1]: some thiol protection; protection against H2O2-induced cytotoxicity (MN9D cells [2]): 3 fold; thiol protection against acrolein at elevated pH ([4]; pH 9.0): none was observed; also recorded: did not increase; increase in acrolein LC50 (MN9D cells [8]): ~7 fold
C=CC=O [acrolein]	–	–	–	–	–	−78.4±7	–	IC50 ([1]; Rattus norvegicus, acrolein alone, 0.001-1 mM, read-out: IC50 of acrolein for loss of synaptosomal sulfhydryl groups): 74 µM; rate of acrolein-induced sulfhydryl (NAC) loss (mean rate±95% confidence interval) [4]: -78.4 ± 6.2 nmol/s; IC50 ([5]; Rattus norvegicus, acrolein alone, 0.001-1 mM, read-out: IC50 of acrolein for decrease in membrane 3H-DA transport): 66 µM
COc1cc(/C=C/C(=O)CC(=O)/C=C/c2ccc(O)c(OC)c2)ccc1O [curcumin, reference compound]	–	8	–	–	–	–	–	water solubility (Aqueous solubility): insolubility in aqueous solutions
